In publication PMC12389415, “Killer Peptide-Containing Polyelectrolytic Nanocomplexes to Fight Toxoplasma gondii Infection” (Pharmaceutics, 2025):
Like-named read-outs stand apart in the source and are kept apart here. Where a SMILES comes first, the peptide text is derived from it.

Columns and labels:
[1] = Stability of free KP and KP-NPs under stress conditions (60 °C, acid, alkali); conditions: 2 h, Micro BCA
Procedure: Moreover, KP-NPs were exposed to harsh conditions, to assess the ability of the formulation to protect KP from environmental degradation. […] These three samples were exposed to high temperatures (60 °C) for 2 h, then particle size and KP content were evaluated as described above.
To further assess the stability of KP-NPs and their potential protective effect on KP, both free KP and KP-NPs were subjected to harsh stress conditions, namely high temperature (60 °C) and strong acidic or alkaline environment (0.1 M HCl or NaOH) for two hours. […] As for nanoparticles, particle size was checked (Table 3), and the amount of KP released quantified.

[2] = system: T. gondii β-gal-RH (Type I) intracellular tachyzoites in HFFs; assay: Toxo-β-gal assay, post-infection model (intracellular parasites); format: cell-based, Toxoplasma gondii; conditions: dose-response, 48 h
Procedure: T. gondii β-gal-RH (Type I) is a genetically modified strain constitutively expressing β-galactosidase under the control of the promoter SAG1 (constitutive promoter). Susceptibility of T. gondii β-gal to the tested compounds was assessed by determining IC50 values based on β-galactosidase assay, as described by Păunescu et al. Briefly, HFFs (5 × 10^3/well) were seeded into 96-well plates, and once confluent, 200 µL of a suspension of parasites prepared in DMEM + 10% FBS at the concentration of 7.5 × 10^4/mL was added to each well resulting in 1.5 × 10^4 parasites per well.
Plates were incubated for 48 h 37 °C, 5% CO2, then cultures were washed once with 200 μL/well of PBS 1×. […] In total, 10 μL of 5 mM chlorophenol red-β-D-galactopyranoside (CPRG) was added to each well, and the reaction was monitored until saturation (usually reached in 30 min) by repeatedly measuring absorbance at 570 nm. The values obtained from the initial readings were subtracted from the respective final readings, and from these, the averages of each group were calculated. This was followed by calculation of the standard deviation and the calculation of percentage (normalized) absorbance, which was obtained from a ratio between the mean of the treatments and the mean of the negative control (DMEM 10% FBS), multiplied by 100. […]

[3] = supplier data; ref Thermo Scientific; cited from earlier work
From the text: Killer peptide ([…], MW: 998.2, isoelectric point: 8.97) was acquired from Thermo Scientific (Rockford, IL, USA). Sodium hyaluronate (Hyal, MW: 15–30 kDa) was obtained from Contipro (Praha, Czech Republic). Chitosan (Chito, MW: 66 kDa, degree of deacetylation: 96%) was from Primex (Siglufjordur, Iceland). Acetic acid was from Merck. Ultrapure (UP) water was obtained by inverse osmosis using an Arium Comfort® system by Sartorius (Gottingen, Germany). Solvents and reagents were from Avantor, VWR, unless otherwise specified. Resazurin and chlorophenol red-β-D-galactopyranoside (CPRG) were ...

[4] = Procedure: Before formulation, peptide solubility and gelation properties were evaluated by dispersing the powder in different solvents, namely ultrapure water, phosphate-buffered saline, ethanol, methanol, or isopropanol, to evaluate its solubility and gelation properties and select the more appropriate formulative approach by microfluidics.
The solubility of KP and the flowability of the resulting solution are critical elements for microfluidic processing, since viscous solutions cannot be used, as they alter laminar flow conditions or clog the chip’s channels. For this reason, common solvents were screened to select those providing the highest solubility, to prevent spontaneous precipitation of the peptide, without neglecting their acceptability from the toxicological point of view.

[5] = system: T. gondii free tachyzoites; assay: Free tachyzoites exposure, parasite quantification by real-time PCR (B1 gene); format: cell-based, Toxoplasma gondii
Procedure: Additionally, the same experiment was performed in duplicate to extract DNA for subsequent quantification of the parasite using real-time PCR CFX96™ Biorad® (version 3.1) (without using coverslips in the wells). The protocol by Santoro et al., amplifying the target B1 gene using Taqman technology, was optimized by defining the appropriate annealing temperature and amplification cycles. A standard curve for quantification was generated using T. gondii RH-WT grown in HFF cells, to ensure consistency in the results. DNA was extracted with the commercial kit Invitrogen PureLink™ Genomic DNA Mini Kit (Thermo Fisher Scientific, Waltham, Massachusetts, USA) from infected cells (control/treatment) 48 h after seeding, and it was used for amplification of the B1 gene.
The resulting product was loaded onto an agarose gel, and the corresponding band was excised for DNA quantification (12.3 ng/µL). From this, the number of copies per µL (1.1 × 10^11) was calculated using Copy Number Calculator (accessed on 11 April 2025)), and a standard curve was generated via serial dilutions (starting from a concentration of 10^8 copies of DNA/µL down to 10^2 copies of DNA/µL). Each condition was tested in four wells; three independent experiments were conducted.

[6] = system: intracellular tachyzoites of T. gondii; conditions: in vitro; cited from earlier work
From the text: From a parasitological point of view, the fact that the nanoparticles developed here are effective against T. gondii, also without KP, is very intriguing and represents a novel finding. In fact, to the best of our knowledge, no literature describes a parasiticidal role of hyaluronate; while some studies have investigated the parasiticidal activity of chitosan-based nanoparticles, this was limited to the extracellular form or fre ...

[7] = real-time PCR B1 gene, 48 h, KP 250 µg/mL or corresponding NPs

Molecule | Recovery of peptide after stress ([1]; acidic conditions (0.1 M HCl), 60 °C) | Peptide degraded after stress ([1]; alkaline conditions (0.1 M NaOH), 60 °C) | Recovery of peptide after stress ([1]; high temperature (60 °C)) | Efficacy against intracellular T. gondii (in words) [2] | isoelectric point [3] | Sol-gel transition kinetics in water ([4]; KP 3.5 mg/mL, room temperature) | Sol-gel transition kinetics in water ([4]; KP 5 mg/mL) | Gelation in ethanol ([4]; after dissolution at 2 mg/mL) | Solubility in ethanol ([4]; at least up to) | Solubility in PBS ([4]; phosphate-buffered saline) | Solubility in acetone ([4]; powder dispersed in solvent) | Solubility in isopropanol ([4]; powder dispersed in solvent) | Solubility in methanol ([4]; verified up to) | % Reduction Rate (parasite load) ([5]; compared to the control (DMEM), KP 250 µg/mL or corresponding NPs) | Log SQ [5, 7] | SQ Mean [5, 7] | Cq Mean ([5]; real-time PCR B1 gene, DNA extracted 48 h after seeding, KP 250 µg/mL or corresponding NPs) | FC ([5]; vs DMEM control) | ΔCq ([5]; vs DMEM control) | IC50 [6]
CSCC[C@H](NC(=O)[C@@H](NC(=O)[C@@H](NC(=O)[C@H](CCCCN)NC(=O)[C@H](C)N)C(C)C)[C@@H](C)O)C(=O)N[C@H](C(=O)N[C@@H](CS)C(=O)N[C@@H](CO)C(=O)N[C@@H](C)C(=O)N[C@@H](CO)C(=O)O)[C@@H](C)O [KP] (H-AKVTMTCSAS-OH; N-terminus and C-terminus assumed) | full recovery | approximately 20% | full recovery | did not exhibit any efficacy | 8.97 | over the course of two days | almost instantaneous | almost immediate transition, leading to the formation of a thick gel | ≥ 2 mg/mL | practically insoluble | practically insoluble | practically insoluble | ≥ 2 mg/mL | 94.6% | 3.741 | 6041 | 28.17 | 0.072 | 3.80 | –
spiramycin | – | – | – | – | – | – | – | – | – | – | – | – | – | – | – | – | – | – | – | 218 µg/mL
